Measurements taken from US20230159469A1, “NOVEL PHTHALAZINE DERIVATIVE HAVING ECTONUCLOEOTIDE PYROPHOSPHATASE/PHOSPHODIESTE RASE INHIBITORY ACTIVITY, AND USE THEREOF” (TXINNO BIOSCIENCE INC., priority 2020, published 2023).
pIC50: −log10 of the molar value. Structures can show the parent of a compound that is named as a salt.

Biological target: T1, human recombinant ENPP1 (Homo sapiens, UniProt P22413)
T1 construct: purchased R & D systems
T1 sequence (P22413 1-925): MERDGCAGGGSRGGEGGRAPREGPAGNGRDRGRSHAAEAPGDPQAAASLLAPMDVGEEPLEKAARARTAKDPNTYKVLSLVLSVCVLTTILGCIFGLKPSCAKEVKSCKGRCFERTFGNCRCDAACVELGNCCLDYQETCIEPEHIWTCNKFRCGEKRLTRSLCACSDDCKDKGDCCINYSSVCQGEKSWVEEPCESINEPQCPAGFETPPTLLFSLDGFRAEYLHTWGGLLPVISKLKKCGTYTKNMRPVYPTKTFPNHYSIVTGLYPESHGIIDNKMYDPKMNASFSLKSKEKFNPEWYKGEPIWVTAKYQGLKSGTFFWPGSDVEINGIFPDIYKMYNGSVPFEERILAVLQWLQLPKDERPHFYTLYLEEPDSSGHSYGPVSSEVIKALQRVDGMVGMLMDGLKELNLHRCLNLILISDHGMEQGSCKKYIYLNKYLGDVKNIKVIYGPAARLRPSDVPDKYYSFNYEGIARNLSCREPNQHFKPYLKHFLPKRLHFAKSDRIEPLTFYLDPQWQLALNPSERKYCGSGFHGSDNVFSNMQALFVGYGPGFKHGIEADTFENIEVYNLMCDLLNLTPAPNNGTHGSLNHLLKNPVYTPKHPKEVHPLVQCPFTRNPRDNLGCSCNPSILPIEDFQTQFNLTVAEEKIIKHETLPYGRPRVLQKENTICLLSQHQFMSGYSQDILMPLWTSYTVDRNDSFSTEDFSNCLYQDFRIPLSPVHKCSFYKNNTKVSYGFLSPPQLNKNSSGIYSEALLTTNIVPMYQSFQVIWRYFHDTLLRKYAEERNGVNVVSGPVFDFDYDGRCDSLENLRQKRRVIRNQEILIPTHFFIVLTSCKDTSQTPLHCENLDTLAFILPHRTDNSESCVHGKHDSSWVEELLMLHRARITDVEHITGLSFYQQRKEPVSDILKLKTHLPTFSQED
Assay: ENPP1 enzyme assay with cGAMP substrate (AMP-Glo luminescence)
Format: biochemical
Conditions: human recombinant ENPP1 3 ng/reaction, cGAMP 5 μM, 37° C. 90 minutes, read-out: Enzymatic activity (ENPP1 IC50)
Method in brief: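 Human ENPP1 hydrolysis of 5 μM cGAMP was run for 90 min at 37° C in 50 mM Tris pH 8.5, 250 mM NaCl, 0.5 mM CaCl2, 1 μM ZnCl2, 5% glycerol, 1% DMSO. AMP product was quantified by AMP-Glo luminescence; IC50 came from 3-parameter fits of % residual activity, averaged over at least two runs.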

| Compound | pIC50 |
| --- | --- |
| CNc1ccc(Cc2n[nH]c(=O)c3ccccc23)cc1 [Example 162, 4-(4-(methylamino)benzyl)phthalazin-1(2H)-one hydrochloride] | < 5.00 |
| CNc1ccc(Cc2n[nH]c(=O)c3cc(OC)c(OC)cc23)cc1 [Example 163, 6,7-dimethoxy-4-(4-(methylamino)benzyl)phthalazin-1(2H) -one hydrochloride] | < 5.00 |
| CNc1ccc(Cc2nn(C)c(=O)c3cc(OC)c(OC)cc23)cc1 [Example 164, 6,7-dimethoxy-2-methyl-4-(4-(methylamino)benzyl)phthalazin-1(2H)-one hydrochloride] | < 5.00 |
| COc1cc2c(Cc3ccc4c(c3)CCN4)n[nH]c(=O)c2cc1OC [Example 165, 4-(indolin-5-yl-methyl)-6,7-dimethoxyphthalazin-1(2H)-one hydrochloride] | < 5.00 |
| COc1cc2c(Cc3ccc4c(c3)CCN4)nn(C)c(=O)c2cc1OC [Example 166, 4-(indolin-5-yl-methyl)-6,7-dimethoxy-2-methylphthalazin-1(2H)-one hydrochloride] | < 5.00 |
| COc1cc2c(Cc3cccc(NS(=O)(=O)NC(=O)OC(C)(C)C)c3)n[nH]c(=O)c2cc1OC [Example 167, tert-butyl (N-(3-((6,7-dimethoxy-4-oxo-3,4-dihydrophthalazin-1-yl)methyl)phenyl)sulfamoyl)carbamate] | < 5.00 |
| COc1cc2c(Cc3cccc(NS(=O)(=O)NC(=O)OC(C)(C)C)c3)nn(C)c(=O)c2cc1OC [Example 168, tert-butyl (N-(3-((6,7-dimethoxy-3-methyl-4-oxo-3,4-dihydrophthalazin-1-yl)methyl)phenyl)sulfamoyl)carbamate] | < 5.00 |
| Cn1nc(Cc2ccc(NS(=O)(=O)NC(=O)OC(C)(C)C)cc2)c2ccccc2c1=O [Example 170, tert-butyl (N-(4-((3-methyl-4-oxo-3,4-dihydrophthalazin-1-yl)methyl)phenyl)sulfamoyl)carbamate] | < 5.00 |
| COc1cc2c(Cc3ccc(NS(=O)(=O)NC(=O)OC(C)(C)C)cc3)n[nH]c(=O)c2cc1OC [Example 171, tert-butyl (N-(4-((6,7-dimethoxy-4-oxo-3,4-dihydrophthalazin-1-yl)methyl)phenyl)sulfamoyl)carbamate] | < 5.00 |
| CN(c1ccc(Cc2n[nH]c(=O)c3ccccc23)cc1)S(=O)(=O)NC(=O)OC(C)(C)C [Example 173, tert-butyl N-methyl-N-(4-((4-oxo-3,4-dihydrophthalazin-1-yl)methyl)phenyl)sulfamoyl carbamate] | < 5.00 |
| COc1cc2c(Cc3ccc(N(C)S(=O)(=O)NC(=O)OC(C)(C)C)cc3)n[nH]c(=O)c2cc1OC [Example 174, tert-butyl N-(4-((6,7-dimethoxy-4-oxo-3,4-dihydrophthalazin-1-yl)methyl)phenyl)-N-methylsulfamoyl carbamate] | < 5.00 |
| COc1cc2c(Cc3ccc4c(c3)CCN4S(=O)(=O)NC(=O)OC(C)(C)C)n[nH]c(=O)c2cc1OC [Example 176, tert-butyl (5-((6,7-dimethoxy-4-oxo-3,4-dihydrophthalazin-1-yl)methyl)indolin-1-yl)sulfonyl carbamate] | < 5.00 |
| COc1cc2c(Cc3ccc4c(c3)CCN4S(=O)(=O)NC(=O)OC(C)(C)C)nn(C)c(=O)c2cc1OC [Example 177, tert-butyl (5-((6,7-dimethoxy-3-methyl-4-oxo-3,4-dihydrophthalazin-1-yl)methyl)indolin-1-yl)sulfonyl carbamate] | < 5.00 |
| COc1cc2c(Cc3cccc(NS(N)(=O)=O)c3)n[nH]c(=O)c2cc1OC [Example 178, (N-(3-((6,7-dimethoxy-4-oxo-3,4-dihydrophthalazin-1-yl)methyl)phenyl)sulfamide hydrochloride] | < 5.00 |
| COc1cc2c(Cc3cccc(NS(N)(=O)=O)c3)nn(C)c(=O)c2cc1OC [Example 179, N-(3-((6,7-dimethoxy-3-methyl-4-oxo-3,4-dihydrophthalazin-1-yl)methyl)phenyl)sulfamide hydrochloride] | < 5.00 |

Further lines, results first:

| pIC50 | Compound |
| --- | --- |
| < 5.00 | COc1cc2c(Cc3ccc(N(C)C(=O)OC(C)(C)C)cc3)n[nH]c(=O)c2cc1OC [Example 152, tert-butyl (4-((6,7-dimethoxy-4-oxo-3,4-dihydrophthalazin-1-yl)methyl)phenyl) (methyl) carbamate] |
| < 5.00 | COc1cc2c(Cc3ccc4c(c3)CCN4C(=O)OC(C)(C)C)nn(C)c(=O)c2cc1OC [Example 155] |
| < 5.00 | COc1cc2c(Cc3cccc(N)c3)n[nH]c(=O)c2cc1OC [Example 156, 4-(3-aminobenzyl)-6,7-dimethoxyphthalazin-1(2H)-one hydrochloride] |
| < 5.00 | COc1cc2c(Cc3cccc(N)c3)nn(C)c(=O)c2cc1OC [Example 157, 4-(3-aminobenzyl)-6,7-dimethoxy-2-methylphthalazin-1(2H)-one hydrochloride] |
| < 5.00 | Nc1ccc(Cc2n[nH]c(=O)c3ccccc23)cc1 [Example 158, 4-(4-aminobenzyl)-phthalazin-1(2H)-one hydrochloride] |
| < 5.00 | Cn1nc(Cc2ccc(N)cc2)c2ccccc2c1=O [Example 159, 4-(4-aminobenzyl)-2-methylphthalazin-1(2H)-one hydrochloride] |
| < 5.00 | COc1cc2c(Cc3ccc(N)cc3)n[nH]c(=O)c2cc1OC [Example 160, 4-(4-aminobenzyl)-6,7-dimethoxyphthalazin-1(2H)-one hydrochloride] |
| < 5.00 | COc1cc2c(Cc3ccc(N)cc3)nn(C)c(=O)c2cc1OC [Example 161, 4-(4-aminobenzyl)-6,7-dimethoxy-2-methylphthalazin-1(2H)-one hydrochloride] |
| 5.00 to 6.00 | CC(C)(C)OC(=O)NS(=O)(=O)Nc1ccc(Cc2n[nH]c(=O)c3ccccc23)cc1 [Example 169, tert-butyl (N-(4-((4-oxo-3,4-dihydrophthalazin-1-yl)methyl)phenyl)sulfamoyl)carbamate] |
| 5.00 to 6.00 | COc1cc2c(Cc3ccc(NS(=O)(=O)NC(=O)OC(C)(C)C)cc3)nn(C)c(=O)c2cc1OC [Example 172, tert-butyl (N-(4-((6,7-dimethoxy-3-methyl-4-oxo-3,4-dihydrophthalazin-1-yl)methyl)phenyl)sulfamoyl)carbamate] |
| > 6.00 | NS(=O)(=O)Nc1ccc(Cc2n[nH]c(=O)c3ccccc23)cc1 [Example 180, N-(4-((4-oxo-3,4-dihydrophthalazin-1-yl)methyl)phenyl)sulfamide hydrochloride] |
| > 6.00 | Cn1nc(Cc2ccc(NS(N)(=O)=O)cc2)c2ccccc2c1=O [Example 181, N-(4-((3-methyl-4-oxo-3,4-dihydrophthalazin-1-yl)methyl)phenyl)sulfamide hydrochloride] |
| > 6.00 | COc1cc2c(Cc3ccc(NS(N)(=O)=O)cc3)n[nH]c(=O)c2cc1OC [Example 182, N-(4-((6,7-dimethoxy-4-oxo-3,4-dihydrophthalazin-1-yl)methyl)phenyl)sulfamide hydrochloride] |
| > 6.00 | COc1cc2c(Cc3ccc(NS(N)(=O)=O)cc3)nn(C)c(=O)c2cc1OC [Example 183, N-(4-((6,7-dimethoxy-3-methyl-4-oxo-3,4-dihydrophthalazin-1-yl)methyl)phenyl)sulfamide hydrochloride] |
| 5.00 to 6.00 | CN(c1ccc(Cc2n[nH]c(=O)c3ccccc23)cc1)S(N)(=O)=O [Example 184, N-methyl-N-(4-((4-oxo-3,4-dihydrophthalazin-1-yl)methyl)phenyl)sulfamide hydrochloride] |
| > 6.00 | COc1cc2c(Cc3ccc(N(C)S(N)(=O)=O)cc3)n[nH]c(=O)c2cc1OC [Example 185, N-(4-((6,7-dimethoxy-4-oxo-3,4-dihydrophthalazin-1-yl)methyl)phenyl)-N-methylsulfamide hydrochloride] |
| > 6.00 | COc1cc2c(Cc3ccc(N(C)S(N)(=O)=O)cc3)nn(C)c(=O)c2cc1OC [Example 186, N-(4-((6,7-dimethoxy-3-methyl-4-oxo-3,4-dihydrophthalazin-1-yl)methyl)phenyl)-N-methylsulfamide hydrochloride] |
| > 6.00 | COc1cc2c(Cc3ccc4c(c3)CCN4S(N)(=O)=O)n[nH]c(=O)c2cc1OC [Example 187, 5-((6,7-dimethoxy-4-oxo-3,4-dihydrophthalazin-1-yl)methyl)indoline-1-sulfonamide hydrochloride] |
